# Laboratory results taken from PubChem BioAssay (NCI).
#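 Following 48 hours of exposure in 96-well plates, responses at five concentrations were used to interpolate endpoints linearly. TGI: total growth inhibition.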
# Columns and labels:
# Assay in all cases: DTP human tumour cell line panel, 48 h
# HOP-92 NSCLC = tested on: HOP-92 NSCLC
# SK-MEL-2 melanoma = tested on: SK-MEL-2 melanoma
# OVCAR-3 ovarian = tested on: OVCAR-3 ovarian
# IGROV1 ovarian = tested on: IGROV1 ovarian
# HL-60(TB) leukemia = tested on: HL-60(TB) leukemia
# KM12 colon = tested on: KM12 colon
# HCC-2998 colon = tested on: HCC-2998 colon
# OVCAR-4 ovarian = tested on: OVCAR-4 ovarian
# SNB-75 CNS = tested on: SNB-75 CNS
# EKVX NSCLC = tested on: EKVX NSCLC
# NCI-H522 lung = tested on: NCI-H522 lung
# OVCAR-8 ovarian = tested on: OVCAR-8 ovarian
Structure (SMILES),TGI (HOP-92 NSCLC),TGI (SK-MEL-2 melanoma),TGI (OVCAR-3 ovarian),TGI (IGROV1 ovarian),TGI (HL-60(TB) leukemia),TGI (KM12 colon),TGI (HCC-2998 colon),TGI (OVCAR-4 ovarian),TGI (SNB-75 CNS),TGI (EKVX NSCLC),TGI (NCI-H522 lung),TGI (OVCAR-8 ovarian)
CCc1nnc2sc(-c3ccc(-c4ccccc4[N+](=O)[O-])o3)nn12,> 100 µM,95.7 µM,> 100 µM,> 100 µM,99.2 µM,> 100 µM,> 100 µM,> 100 µM,> 100 µM,> 100 µM,> 100 µM,> 100 µM
CN(CCNC(=O)c1nn(C)c2c1Cc1ccccc1-2)CCNC(=O)c1nn(C)c2c1Cc1ccccc1-2,29.3 µM,28.6 µM,29.8 µM,27.5 µM,29 µM,43.7 µM,25.5 µM,53.1 µM,28.4 µM,72.8 µM,30 µM,42.2 µM
O=C1N[C@@H]([C@H]2CC[C@H](Cl)CN2)C(=O)N[C@H]1[C@H]1CC[C@H](Cl)CN1,7.95 µM,7.95 µM,7.61 µM,37.6 µM,0.426 µM,19.1 µM,6.42 µM,8.78 µM,3.65 µM,19.2 µM,4.06 µM,13.9 µM
COC1=CC(=O)[C@@]2(C)C(C)[C@H](c3ccccc3)[C@H]2C1=O (some centres not stated),> 100 µM,> 100 µM,> 100 µM,> 100 µM,> 100 µM,> 100 µM,> 100 µM,> 100 µM,> 100 µM,> 100 µM,> 100 µM,> 100 µM
Cc1[nH]c2c(C)c3c([nH]c4ccc(Cl)cc43)c(C)c2c(=O)c1C,> 100 µM,> 100 µM,18.9 µM,> 65.5 µM,9.64 µM,77.2 µM,16.5 µM,> 64.1 µM,> 92.5 µM,> 100 µM,12.9 µM,17.7 µM
COc1ccc(/C=N/n2c(-c3ccccc3)n[nH]c2=O)c(OC)c1,> 100 µM,> 100 µM,> 100 µM,> 100 µM,> 100 µM,> 100 µM,> 100 µM,> 86.6 µM,> 73.2 µM,> 100 µM,> 74.3 µM,> 87.6 µM
O=C1c2ccccc2C(=O)c2c1ccc1c3ccccc3n(-c3ccccc3)c21,11.7 µM,46.8 µM,55 µM,41 µM,8.47 µM,50.1 µM,72.6 µM,33.5 µM,44.9 µM,56 µM,32.4 µM,44.8 µM
CCOC(=O)c1cccc(N=NNc2cccc(C(=O)OCC)c2)c1,46.8 µM,> 100 µM,93.9 µM,> 100 µM,> 100 µM,> 100 µM,> 100 µM,63 µM,36.9 µM,> 100 µM,84.3 µM,91.8 µM
CCN(CC)C(=O)Cc1[nH][nH]c(=O)c1C(=O)N(CC)CC,> 100 µM,> 100 µM,> 100 µM,> 100 µM,> 100 µM,> 100 µM,> 100 µM,> 100 µM,> 100 µM,> 100 µM,> 100 µM,> 100 µM
CCC(CCCC[C@H]1CC[C@@H]2CC(=O)C[C@H]12)OC (some centres not stated),> 100 µM,> 100 µM,> 100 µM,> 100 µM,> 100 µM,> 100 µM,> 100 µM,> 100 µM,> 100 µM,> 100 µM,> 100 µM,> 100 µM
COc1ccc2nc(-c3ccc(N)cc3)sc2c1,> 100 µM,> 100 µM,> 100 µM,> 100 µM,> 100 µM,> 100 µM,> 100 µM,> 100 µM,> 100 µM,> 100 µM,> 100 µM,> 100 µM
